# Test results published in ChEMBL document CHEMBL3045250 (Med Chem Res, 2005).
# How the values were obtained:
# [1] = biological target: T1, 5-hydroxytryptamine receptor 6 (Homo sapiens, UniProt P50406); experiment: Displacement of [3H]LSD from Homo sapiens (human) 5-HT6 receptor expressed in Homo sapiens (human) HEK293 cells; format: cell-based
# [2] = biological target: T1, 5-hydroxytryptamine receptor 6; experiment: Binding affinity to 5-HT6 receptor (unknown origin)
# T1 sequence (P50406 whole entry): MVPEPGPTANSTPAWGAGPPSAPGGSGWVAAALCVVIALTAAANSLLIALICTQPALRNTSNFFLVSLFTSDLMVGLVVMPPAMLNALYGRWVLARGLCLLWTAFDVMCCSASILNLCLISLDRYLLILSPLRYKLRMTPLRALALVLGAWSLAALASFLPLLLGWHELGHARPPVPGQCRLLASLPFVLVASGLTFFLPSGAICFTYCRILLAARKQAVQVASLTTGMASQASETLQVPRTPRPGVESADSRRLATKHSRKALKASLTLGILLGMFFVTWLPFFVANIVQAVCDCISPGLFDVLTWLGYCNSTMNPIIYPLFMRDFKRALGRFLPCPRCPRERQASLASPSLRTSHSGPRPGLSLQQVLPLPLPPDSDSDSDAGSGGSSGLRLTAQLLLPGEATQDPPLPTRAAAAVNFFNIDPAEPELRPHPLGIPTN
Ki [2],Compound,Ki [1]
–,Cc1cn(S(=O)(=O)c2ccc(N)cc2)c2ccncc12,0.041 µM
–,CN(C)CCc1c(-c2ccccc2)[nH]c2ccncc12,0.27 µM
–,CN(C)CCc1c[nH]c2ccncc12,0.1 µM
–,NCCc1c(-c2ccccc2)[nH]c2ccncc12,2.6 µM
–,CN(C)CCc1cn(S(=O)(=O)c2ccccc2)c2ccncc12,0.084 µM
0.058 µM,CNc1cc(NS(=O)(=O)c2ccc(N)cc2)nc(NC)n1,–
–,CCc1[nH]c2ccncc2c1CCN,4.9 µM
–,CCc1[nH]c2ccncc2c1CCN(C)C,2.9 µM
–,NCCc1c[nH]c2ccncc12 [5-Azatryptamine],0.064 µM
